Calls of active or inactive are those of the source.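 The calls were made as follows: active = IC50 of 10 µM or lower; inactive = IC50 above 10 µM.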
Tested on: E. coli AddAB+ with T4 gene 2 phage, OD growth
Experiment: AddAB complex inhibitors, phage-infection growth assay, dose response, absorbance, E. coli, T4 phage (AID 492959);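 also: growth read as OD600 after 18 h at 37 °C; AddAB inhibitors let the phage kill the cells so OD falls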
Details: AddAB enzyme is from H. pylori; T4 phage with nonsense-mutated gene 2

Compound	IC50
CC(=O)N(O)CCCCCNC(=O)CCC(=O)N(O)CCCCCNC(=O)CCC(=O)N(O)CCCCCNC(=O)CCC(=O)O	> 118 µM (inactive)
c1cnc2c(c1)ccc1cccnc12	29.6 µM (inactive)
O=C(NNC(=O)c1cc2ccccc2cc1O)Nc1ccc(Br)cc1	> 119 µM (inactive)
Oc1ccc(N=Nc2ccc3c(c2)OCCO3)c2ncccc12	> 119 µM (inactive)
CCC(=O)NC(c1ccc(C)cc1)c1cc(Cl)c2cccnc2c1O (stereo unspecified)	> 119 µM (inactive)
O=C(Nc1nc(-c2cccs2)cs1)c1ccc([N+](=O)[O-])o1	12 µM (inactive)
COc1c(O)c(O)c2oc(-c3ccccc3)cc(=O)c2c1OC	> 119 µM (inactive)
COCCN=c1scc(-c2cccs2)n1/N=C/c1ccc(O)c(O)c1O	> 119 µM (inactive)
O=C(O)c1ccc(N/N=C/C=C/c2ccc([N+](=O)[O-])o2)cc1	30 µM (inactive)
CCCNC(=O)c1ccc2c(=O)c(O)c(-c3cccc(Br)c3)[nH]c2c1	> 119 µM (inactive)
C=CC[n+]1c(/C=C2\C=Cc3cc(C)ccc3N2CC)ccc2ccccc21	32.6 µM (inactive)
O=C(Nc1ccc2oc(-c3ccncc3)nc2c1)c1ccc([N+](=O)[O-])o1	> 119 µM (inactive)
O=C1c2ccccc2NC(c2ccc(-c3ccc(Br)cc3)o2)N1O (stereo unspecified)	> 119 µM (inactive)
CCCC(=O)NC(c1ccccc1OC)c1ccc2cccnc2c1O (stereo unspecified)	> 119 µM (inactive)
O=C(NCc1ccco1)c1ccc([N+](=O)[O-])o1	21.3 µM (inactive)
N#Cc1c(-c2ccccc2)ccn(Cc2cccc(Cl)c2)c1=O	> 119 µM (inactive)
CC(C)C(=O)N1CCN(c2ccc(NC(=O)c3ccc([N+](=O)[O-])o3)cc2)CC1	81.7 µM (inactive)
Oc1cccc(C(Nc2nccs2)c2ccc3cccnc3c2O)c1 (stereo unspecified)	> 119 µM (inactive)
O=C(Nc1nnc(-c2cccs2)o1)c1cccc(C(F)(F)F)c1	> 39.5 µM (inactive)
O=C(CSc1nc2ccccc2[nH]1)Nc1ccc(N2CCOCC2)cc1	> 118 µM (inactive)
CC(=O)N(/N=C/c1ccc([N+](=O)[O-])o1)c1nc2ccccc2c(=O)n1-c1ccccc1	45.2 µM (inactive)
O=C(NC(=S)NNC(=O)c1cc2ccccc2cc1O)c1ccco1	> 119 µM (inactive)
COc1ccc(Nc2nnc(SCc3cn4c(C)cccc4n3)s2)cc1	> 119 µM (inactive)
O=C(COC(=O)c1ccc([N+](=O)[O-])s1)c1ccc[nH]1	> 119 µM (inactive)

Compound	IC50
CCn1cc(C(=O)NCCc2ccccc2)c(=O)c2cc(F)c(N3CCN(C)CC3)cc21	20.4 µM (inactive)
CC(=O)c1ccc(NC(=S)NC(NC(=O)c2ccco2)C(Cl)(Cl)Cl)cc1 (stereo unspecified)	> 119 µM (inactive)
O=C(CSC1=NNC(c2ccccn2)S1)Nc1ccccc1 (stereo unspecified)	> 118 µM (inactive)
COc1ccc(/C=C2\SC(=O)N(CC(=O)NNC(=O)c3ccccc3O)C2=O)cc1OC	> 119 µM (inactive)
CCCCOc1ccc(Cc2cnc(N)nc2N)cc1	79.6 µM (inactive)
O=C(NC(=S)NNC(=O)c1ccccc1O)c1cccs1	> 39.6 µM (inactive)
CCCCC(=O)NC(c1cccs1)c1cc(Cl)c2cccnc2c1O (stereo unspecified)	> 119 µM (inactive)
Cc1cc(Cl)ccc1NC(=S)NCc1ccccc1Cl	> 119 µM (inactive)
O=C(Nc1ccc([N+](=O)[O-])cc1)Nc1ccc(OC(F)F)c(Cl)c1	> 119 µM (inactive)
CCCCNC1=CC(=O)C(=O)c2ccccc21	62.1 µM (inactive)
CCCCC(=O)NC(c1ccc(Cl)cc1)c1ccc2cccnc2c1O (stereo unspecified)	> 119 µM (inactive)
COc1ccc(-c2cc(N3CCCC3)n3ncnc3n2)cc1	> 119 µM (inactive)
O=[N+]([O-])c1ccc(/C=N/n2cnc3ccccc32)s1	46.8 µM (inactive)
CCCCC(=O)NC(c1ccco1)c1cc(Cl)c2cccnc2c1O (stereo unspecified)	> 119 µM (inactive)
Cc1ccc(CNC(=O)c2ccc3c(=O)c(O)c(-c4ccc(C)cc4)[nH]c3c2)cc1	> 119 µM (inactive)
O=C1c2ccccc2NC(c2ccc(-c3cccc([N+](=O)[O-])c3)o2)N1O (stereo unspecified)	> 119 µM (inactive)
CCCC(=O)NC(c1ccc2c(c1)OCO2)c1cc(Cl)c2cccnc2c1O (stereo unspecified)	> 119 µM (inactive)
C/C(=N\Nc1ccc2nncn2n1)c1ccccn1	> 119 µM (inactive)
CCC(=O)NC(c1ccc(C)cc1)c1ccc2cccnc2c1O (stereo unspecified)	> 119 µM (inactive)
CCCNC(=O)c1ccc2c(=O)c(O)c(-c3ccsc3)[nH]c2c1	> 118 µM (inactive)
O=C1c2ccccc2C(=O)c2[nH]c(=O)[nH]c21	> 119 µM (inactive)
Oc1ccc2ccccc2c1/C=N/Nc1nnc(-c2ncc[nH]2)c2ccccc12	> 119 µM (inactive)
COc1ccc(N/N=C(/N=Nc2nc(C)cc(=O)[nH]2)c2ccccc2)cc1	> 119 µM (inactive)
FC(F)Oc1ccc(NC(=S)NCc2nc3ccccc3[nH]2)cc1	> 119 µM (inactive)

Compound	IC50
C=CCc1cccc(/C=N/NC(=O)CCC(=O)Nc2ccc(F)cc2)c1O	> 119 µM (inactive)
Cc1cc(N/N=C/c2ccc(O)cc2O)nc(-c2ccccc2O)n1	> 119 µM (inactive)
Fc1ccc(Nc2nnc(C(F)(F)F)s2)cc1Cl	78 µM (inactive)
O=c1c2ccccc2nc(N/N=C/c2c(O)ccc3ccccc23)n1O	> 119 µM (inactive)
Oc1c(N=Nc2ccccn2)ccc2ccccc12	> 119 µM (inactive)
O=C1c2ccccc2NC(c2ccc(-c3cccc(Cl)c3)o2)N1O (stereo unspecified)	> 119 µM (inactive)
O=C(CSc1nc2ccccc2o1)Nc1ccc(N2CCOCC2)cc1	> 119 µM (inactive)
Cc1cc(C(C)(C)C)cc(C)c1CC1=NCCN1	19.4 µM (inactive)
COc1cccc(-n2c(SCc3cc(=O)oc4cc(O)c(O)cc34)nc3ccccc3c2=O)c1	> 119 µM (inactive)
Oc1c(C(c2ccccc2Cl)N2CCCC2)ccc2cccnc12 (stereo unspecified)	115 µM (inactive)
Cc1cc([N+](=O)[O-])nn1Cc1ccc(C(=O)N/N=C/c2ccc(O)cc2O)cc1	> 119 µM (inactive)
O=C(N/N=C\c1cccc(Cl)c1)c1ccc(Cn2cc(Br)c([N+](=O)[O-])n2)o1	> 119 µM (inactive)
CCn1cc(C(=O)O)c(=O)c2cnc(N3CCN(C(=S)Nc4ccccc4C(F)(F)F)CC3)nc21	2.54 µM
CSc1nc(N)nc2c1ncn2CC(=O)Nc1ccc(C)c(C)c1	> 118 µM (inactive)
COc1cc(NC(=O)c2ccc([N+](=O)[O-])o2)ccc1NC(=O)c1ccco1	> 119 µM (inactive)
CCC(C)NC(=O)c1cn(CC)c2cc(N3CCN(C(=O)c4ccco4)CC3)c(F)cc2c1=O (stereo unspecified)	17.6 µM (inactive)
Cc1c(Br)c([N+](=O)[O-])nn1C(C)C(=O)NCc1ccco1 (stereo unspecified)	> 119 µM (inactive)
Cc1ccc2nc(/C(C#N)=C\c3ccc([N+](=O)[O-])o3)[nH]c2c1	4.86 µM
COc1ccc(NC(=O)Cn2cc(C(=O)c3ccco3)c3ccccc32)cc1	> 119 µM (inactive)
O=C(O)CC1S/C(=N/N=C/c2ccccn2)NC1=O (stereo unspecified)	> 118 µM (inactive)
COc1cccc(/C=N/Nc2ccc([N+](=O)[O-])cn2)c1O	> 118 µM (inactive)
O=Nc1ccc(O)c2ncccc12	9.8 µM
Cc1ccc(-c2oc3ccccc3c(=O)c2O)cc1	> 119 µM (inactive)
